Measured values: US5707838A, “Antibiotic produced by Pseudomonas sp. and process for the preparation thereof” (priority 1994, dated 1998)

Tested on: M. gallisepticum (MG) field-isolated strain T
Assay: In vivo test on chickens inoculated with M. gallisepticum in right air sacs
Details: oral, 5 chickens tested, autopsy 7th day

| Structure (SMILES) | No. of lesions of right air sacs: -- (1 × 50 mg/kg) | No. of lesions of right air sacs: Moderate to severe (1 × 50 mg/kg) | No. of lesions of right air sacs: Slight (1 × 50 mg/kg) | No. of lesions of right air sacs: -- (1 × 100 mg/kg) | No. of lesions of right air sacs: Moderate to severe (1 × 100 mg/kg) | No. of lesions of right air sacs: Slight (1 × 100 mg/kg) | No. of lesions of right air sacs: -- (1 × 200 mg/kg) | No. of lesions of right air sacs: Moderate to severe (1 × 200 mg/kg) | No. of lesions of right air sacs: Slight (1 × 200 mg/kg) |
| --- | --- | --- | --- | --- | --- | --- | --- | --- | --- |
| CN(C)[C@@H]1C(O)=C(C(N)=O)C(=O)[C@@]2(O)C(O)=C3C(=O)c4c(O)ccc(Cl)c4[C@@](C)(O)[C@H]3C[C@@H]12 [CTC, Chlortetracycline] | 1 | 3 | 1 | 2 | 2 | 1 |  |  |  |
| CC[C@H]1OC(=O)C[C@@H](O)[C@H](C)[C@@H](O[C@@H]2O[C@H](C)[C@@H](O[C@H]3C[C@@](C)(O)[C@@H](O)[C@H](C)O3)[C@H](N(C)C)[C@H]2O)[C@@H](CC=O)C[C@@H](C)C(=O)/C=C/C(C)=C/[C@@H]1CO[C@@H]1O[C@H](C)[C@@H](O)[C@@H](OC)[C@H]1OC [TS, Tylosin] |  |  |  | 1 | 4 | 0 | 0 | 2 | 3 |
